A word on the IC50: it is the point on the concentration scale where inhibition reaches its midpoint.

For 15 compounds, IC50 and Ki results are on record in ChEMBL document CHEMBL1909046, “DrugMatrix in vitro pharmacology data”.

In assay [1] the target is T1, Cysteinyl leukotriene receptor 1 (Homo sapiens, UniProt Q9Y271). Note: in other assays of this panel Not Active means under 50% inhibition at 10 µM.
T1 sequence (Q9Y271 whole entry): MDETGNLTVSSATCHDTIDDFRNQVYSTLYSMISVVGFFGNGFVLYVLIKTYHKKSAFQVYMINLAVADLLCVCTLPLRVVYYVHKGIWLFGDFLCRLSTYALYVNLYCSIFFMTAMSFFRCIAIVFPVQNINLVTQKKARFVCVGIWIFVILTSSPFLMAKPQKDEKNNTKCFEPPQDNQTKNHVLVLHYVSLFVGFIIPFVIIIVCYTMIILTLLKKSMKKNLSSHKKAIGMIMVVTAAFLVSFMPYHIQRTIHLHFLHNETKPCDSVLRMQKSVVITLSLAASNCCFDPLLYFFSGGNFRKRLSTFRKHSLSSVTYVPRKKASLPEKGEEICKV
It is filed as cell membranes, CHO-K1, Membrane. Particulars: cho-k1.

The target in assay [2] is T2, Amine oxidase [flavin-containing] A (Homo sapiens, UniProt P21397).
T2 sequence (P21397 whole entry): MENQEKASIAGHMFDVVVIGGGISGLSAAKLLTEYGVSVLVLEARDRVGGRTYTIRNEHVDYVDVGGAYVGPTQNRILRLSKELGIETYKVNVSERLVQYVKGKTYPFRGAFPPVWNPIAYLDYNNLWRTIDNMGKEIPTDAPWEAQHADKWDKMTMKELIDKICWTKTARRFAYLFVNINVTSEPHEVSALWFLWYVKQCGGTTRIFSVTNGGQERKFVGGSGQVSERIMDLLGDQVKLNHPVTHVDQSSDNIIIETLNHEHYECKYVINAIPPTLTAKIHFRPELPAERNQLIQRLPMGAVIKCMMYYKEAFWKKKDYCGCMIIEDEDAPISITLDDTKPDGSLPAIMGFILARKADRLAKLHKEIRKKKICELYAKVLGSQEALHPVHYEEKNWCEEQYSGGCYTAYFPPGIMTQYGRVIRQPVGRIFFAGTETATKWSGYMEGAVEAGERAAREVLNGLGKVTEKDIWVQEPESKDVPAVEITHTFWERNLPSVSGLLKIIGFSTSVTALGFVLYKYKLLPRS
Kind of assay: DRUGMATRIX: Monoamine Oxidase MAO-A enzyme inhibition (substrate: Kynuramine). Also on record: species or system BTI-TN-5B1-4. Particulars: bti-tn-5b1-4; Not Active = under 50% inhibition at 10 µM.

The target of assay [3] is T3, Muscarinic acetylcholine receptor M5 (Homo sapiens, UniProt P08912). Note: in other assays of this panel Not Active means under 50% inhibition at 10 µM.
T3 sequence (P08912 whole entry): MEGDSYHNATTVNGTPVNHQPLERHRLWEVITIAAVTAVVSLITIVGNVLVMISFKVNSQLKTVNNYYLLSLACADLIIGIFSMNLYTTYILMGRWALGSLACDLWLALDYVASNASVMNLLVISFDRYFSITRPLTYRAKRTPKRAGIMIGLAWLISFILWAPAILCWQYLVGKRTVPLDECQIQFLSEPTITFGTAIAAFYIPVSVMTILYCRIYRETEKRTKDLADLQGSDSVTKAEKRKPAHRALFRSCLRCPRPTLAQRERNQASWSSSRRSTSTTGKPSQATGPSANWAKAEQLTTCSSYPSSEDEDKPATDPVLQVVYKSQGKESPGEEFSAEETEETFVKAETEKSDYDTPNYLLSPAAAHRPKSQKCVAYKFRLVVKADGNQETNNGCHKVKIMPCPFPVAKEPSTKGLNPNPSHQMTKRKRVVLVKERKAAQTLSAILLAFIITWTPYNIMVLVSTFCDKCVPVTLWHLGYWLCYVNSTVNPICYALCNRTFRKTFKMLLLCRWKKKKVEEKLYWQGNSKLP
It is filed as cell membranes, CHO-K1, Membrane. The conditions noted are these: cho-k1.

Another assay concerns the target T4, Interstitial collagenase (Homo sapiens, UniProt P03956).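 Note: MMP-1 enzyme inhibition assay using a peptide substrate; in other assays of this panel Not Active means under 50% inhibition at 10 µM.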
T4 sequence (P03956 whole entry): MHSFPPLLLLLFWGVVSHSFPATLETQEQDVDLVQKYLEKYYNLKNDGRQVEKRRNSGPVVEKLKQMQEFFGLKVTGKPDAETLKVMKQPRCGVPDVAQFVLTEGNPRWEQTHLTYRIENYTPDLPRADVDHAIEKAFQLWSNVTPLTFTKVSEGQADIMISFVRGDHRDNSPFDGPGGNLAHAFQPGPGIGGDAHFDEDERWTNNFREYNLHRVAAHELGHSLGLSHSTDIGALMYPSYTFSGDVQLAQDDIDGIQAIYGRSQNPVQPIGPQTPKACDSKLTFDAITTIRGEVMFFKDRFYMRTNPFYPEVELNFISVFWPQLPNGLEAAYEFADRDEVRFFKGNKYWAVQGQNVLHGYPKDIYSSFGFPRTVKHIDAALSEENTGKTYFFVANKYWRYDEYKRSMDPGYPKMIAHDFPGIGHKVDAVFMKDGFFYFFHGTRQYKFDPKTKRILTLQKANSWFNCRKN
The assay can be described thus: biochemical. The class given is tissue-based, Rheumatoid synovial fibroblasts.

For assay [4], the target named is Matrix metalloproteinase-9 (Homo sapiens, UniProt P14780). It is filed as cell-based.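 Note: inhibition of isolated MMP-9 enzyme activity toward a synthetic peptide substrate, from the DrugMatrix protease screening panel; in other assays of this panel Not Active means under 50% inhibition at 10 µM.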
Matrix metalloproteinase-9, sequence (P14780 whole entry): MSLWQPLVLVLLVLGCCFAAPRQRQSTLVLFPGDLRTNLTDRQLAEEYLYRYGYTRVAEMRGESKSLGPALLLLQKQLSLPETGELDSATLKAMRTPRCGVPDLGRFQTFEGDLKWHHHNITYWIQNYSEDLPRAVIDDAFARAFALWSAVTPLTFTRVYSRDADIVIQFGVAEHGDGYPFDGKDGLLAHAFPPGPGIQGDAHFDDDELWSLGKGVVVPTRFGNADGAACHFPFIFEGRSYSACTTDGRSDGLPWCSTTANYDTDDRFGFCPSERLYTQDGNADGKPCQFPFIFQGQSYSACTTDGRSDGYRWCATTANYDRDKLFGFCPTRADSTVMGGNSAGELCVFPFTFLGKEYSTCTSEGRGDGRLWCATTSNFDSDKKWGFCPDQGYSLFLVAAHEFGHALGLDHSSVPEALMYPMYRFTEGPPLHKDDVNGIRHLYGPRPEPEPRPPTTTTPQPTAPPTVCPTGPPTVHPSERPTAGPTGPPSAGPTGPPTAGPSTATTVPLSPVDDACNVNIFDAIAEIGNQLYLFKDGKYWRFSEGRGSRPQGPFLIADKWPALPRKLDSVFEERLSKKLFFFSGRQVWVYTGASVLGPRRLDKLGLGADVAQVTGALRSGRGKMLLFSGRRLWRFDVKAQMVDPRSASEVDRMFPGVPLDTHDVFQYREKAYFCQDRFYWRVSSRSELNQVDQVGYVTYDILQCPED
Assay [5] has as its target Mitogen-activated protein kinase 1 (Homo sapiens, UniProt P28482). Kind of assay: DRUGMATRIX: Protein Serine/Threonine Kinase, ERK2 enzyme inhibition (substrate: Myelin Basic Protein). Particulars: Not Active = under 50% inhibition at 10 µM. Set-up: species or system Escherichia coli.
The next assay concerns the target T5, Adenosine receptor A1 (Homo sapiens, UniProt P30542).
T5 sequence (P30542 whole entry): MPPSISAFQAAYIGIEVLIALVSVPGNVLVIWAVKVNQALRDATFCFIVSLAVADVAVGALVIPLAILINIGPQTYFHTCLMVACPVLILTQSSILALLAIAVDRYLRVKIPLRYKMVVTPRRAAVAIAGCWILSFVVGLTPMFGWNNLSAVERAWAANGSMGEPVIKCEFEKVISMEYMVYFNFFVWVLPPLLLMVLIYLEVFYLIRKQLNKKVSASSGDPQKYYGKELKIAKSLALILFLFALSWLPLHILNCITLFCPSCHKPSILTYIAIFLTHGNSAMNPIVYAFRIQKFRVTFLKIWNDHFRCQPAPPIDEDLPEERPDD
It is filed as cell membranes, CHO, Membrane. The conditions noted are these: cho.

Mitogen-activated protein kinase 1, sequence (P28482 whole entry): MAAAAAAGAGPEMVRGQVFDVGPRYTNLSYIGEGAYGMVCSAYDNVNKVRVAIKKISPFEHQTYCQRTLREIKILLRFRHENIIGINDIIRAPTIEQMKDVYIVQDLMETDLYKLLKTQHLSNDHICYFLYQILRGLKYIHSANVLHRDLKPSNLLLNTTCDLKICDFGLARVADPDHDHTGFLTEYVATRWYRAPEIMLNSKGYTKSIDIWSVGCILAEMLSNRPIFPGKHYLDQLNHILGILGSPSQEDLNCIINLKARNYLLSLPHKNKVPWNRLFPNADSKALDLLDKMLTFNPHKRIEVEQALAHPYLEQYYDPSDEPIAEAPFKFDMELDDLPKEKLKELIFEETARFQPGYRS

`Cc1cn([C@H]2C=C[C@@H](CO)O2)c(=O)[nH]c1=O` [STAVUDINE]: the 50% inhibitory concentration (IC50) entry (in assay [1]; in assay [2]; in assay [3]; on Interstitial collagenase; in assay [4]; in assay [5]) was “Not Active” each time. The half-inhibitory concentration (IC50) result against Adenosine receptor A1 was “Not Active”.

Turning to `CC1(C)[C@H](C(=O)O)N2C(=O)C[C@H]2S1(=O)=O` [SULBACTAM], the IC50 result (in assay [1]; in assay [2]; in assay [3]; against Interstitial collagenase; in assay [4]; in assay [5]) was “Not Active” each time. Also, on Adenosine receptor A1, the 50% inhibitory concentration (IC50) entry is reported as “Not Active”.

Take `Cc1ccnc(NS(=O)(=O)c2ccc(N)cc2)n1` [SULFAMERAZINE]: the IC50 result (in assay [1]; in assay [2]; in assay [3]; on Interstitial collagenase; in assay [4]; in assay [5]) was “Not Active” each time. Further, at Adenosine receptor A1, the IC50 result is “Not Active”.

In the case of `Cc1nnc(NS(=O)(=O)c2ccc(N)cc2)s1` [SULFAMETHIZOLE], the IC50 result (in assay [1]; in assay [2]; in assay [3]; against Interstitial collagenase; in assay [4]; in assay [5]) was “Not Active” each time. Also, at Adenosine receptor A1, the IC50 result was “Not Active”.

For the compound `O=C(O)c1cc(/N=N/c2ccc(S(=O)(=O)Nc3ccccn3)cc2)ccc1O` [SULFASALAZINE], the IC50 entry is “Not Active” in assay [1]; “Not Active” in assay [2]; “Not Active” in assay [3]; 23.5 µM on Interstitial collagenase (read-out: IC50); “Not Active” in assay [4]; 6.33 µM in assay [5] (read-out: IC50). In addition, the IC50 result against Adenosine receptor A1 was “Not Active”.

On to `CCN1CCCC1CNC(=O)c1cc(S(N)(=O)=O)ccc1OC` (configuration not stated) [SULPIRIDE], for which the half-inhibitory concentration (IC50) entry (in assay [1]; in assay [2]; in assay [3]; on Interstitial collagenase; in assay [4]; in assay [5]) was “Not Active” each time. Also, the IC50 result against Adenosine receptor A1 was “Not Active”.

For the compound `O=C(OC[C@H]1O[C@@H](OC(=O)c2cc(O)c(O)c(OC(=O)c3cc(O)c(O)c(O)c3)c2)[C@H](OC(=O)c2cc(O)c(O)c(OC(=O)c3cc(O)c(O)c(O)c3)c2)[C@@H](OC(=O)c2cc(O)c(O)c(OC(=O)c3cc(O)c(O)c(O)c3)c2)[C@@H]1OC(=O)c1cc(O)c(O)c(OC(=O)c2cc(O)c(O)c(O)c2)c1)c1cc(O)c(O)c(OC(=O)c2cc(O)c(O)c(O)c2)c1` [TANNIC ACID], the 50% inhibitory concentration (IC50) result in assay [1] was “Not Active”; in assay [2] it was “Not Active”; in assay [3], “Not Active”; on Interstitial collagenase, “Not Active”; in assay [4], “Not Active”; in assay [5] (read-out: IC50) it was 0.185 µM. Moreover, the 50% inhibitory concentration (IC50) result against Adenosine receptor A1 is “Not Active”.

In the case of `C#C[C@]1(O)CC[C@H]2[C@@H]3[C@H](C)CC4=C(CCC(=O)C4)[C@H]3CC[C@@]21C` [TIBOLONE], the IC50 entry (in assay [1]; in assay [2]; in assay [3]; on Interstitial collagenase; in assay [4]; in assay [5]) was “Not Active” in each case. Moreover, at Adenosine receptor A1, the half-maximal inhibitory concentration (IC50) entry is given as “Not Active”.

With `Cc1cccc(C)c1NC(=O)C(C)N` (configuration not stated) [TOCAINIDE], the concentration for half-maximal inhibition (IC50) result (in assay [1]; in assay [2]; in assay [3]; at Interstitial collagenase; in assay [4]; in assay [5]) was “Not Active” each time. Moreover, the IC50 entry at Adenosine receptor A1 is given as “Not Active”.

In the case of `Cc1ccc(S(=O)(=O)NC(=O)NN2CCCCCC2)cc1` [TOLAZAMIDE], the IC50 result (in assay [1]; in assay [2]; in assay [3]; at Interstitial collagenase; in assay [4]; in assay [5]) was “Not Active” each time. Further, the IC50 entry at Adenosine receptor A1 is recorded as “Not Active”.

On to `CC[C@@]1(O)C(=O)OCc2c1cc1n(c2=O)Cc2cc3c(CN(C)C)c(O)ccc3nc2-1` [TOPOTECAN], for which the IC50 result (in assay [1]; in assay [2]; in assay [3]; on Interstitial collagenase; in assay [4]; in assay [5]) was “Not Active” each time. For the same compound, at Adenosine receptor A1, the half-maximal inhibitory concentration (IC50) result is “Not Active”.

Turning to `CC1=C(/C=C/C(C)=C/C=C/C(C)=C/C(=O)O)C(C)(C)CCC1` [TRETINOIN], the IC50 result was “Not Active” in assay [1]; “Not Active” in assay [2]; “Not Active” in assay [3]; “Not Active” against Interstitial collagenase; “Not Active” in assay [4]; 0.576 µM in assay [5] (read-out: IC50). In addition, the half-maximal inhibitory concentration (IC50) result at Adenosine receptor A1 is listed as “Not Active”.

Regarding `CC(Cl)(Cl)Cl` [TRICHLOROETHANE], the IC50 entry (in assay [1]; in assay [2]; in assay [3]; at Interstitial collagenase; in assay [4]; in assay [5]) was “Not Active” throughout. For the same compound, on Adenosine receptor A1, the IC50 entry is given as “Not Active”.

On to `CN1C(=O)OC(C)(C)C1=O` [TRIMETHADIONE], for which the IC50 entry (in assay [1]; in assay [2]; in assay [3]; against Interstitial collagenase; in assay [4]; in assay [5]) was “Not Active” each time. Besides, the 50% inhibitory concentration (IC50) result at Adenosine receptor A1 was “Not Active”.

As for LEAD(IV) ACETATE, the IC50 entry (in assay [1]; in assay [2]; in assay [3]; against Interstitial collagenase; in assay [4]; in assay [5]) was “Not Active” throughout. Besides, on Adenosine receptor A1, the IC50 entry is “Not Active”. For the same compound, the Ki result (in assay [1]; in assay [2]; in assay [3]; on Interstitial collagenase; in assay [4]; in assay [5]) was “Not Active” in each case. In addition, the Ki entry at Adenosine receptor A1 is recorded as “Not Active”.
